Source: ChEMBL document CHEMBL4371090, “Chemical Synthesis Study Establishes the Correct Structure of the Potent Anti-Inflammatory Agent Myrsinoic Acid F” (J Nat Prod, 2019)
The source made the active and inactive calls. No cut-off for these calls is given here.

System: Mus musculus
Experiment: Anti-inflammatory activity in TPA-induced mouse ear edema model assessed as inhibition of ear swelling at 0.6 to 1.4 umol applied topically on ear pretreated for 0.5 hrs followed by TPA application and measured after 7 hrs
Format: functional, organism-based

SMILES: CC(C)=CC/C=C(\C)C(O)Cc1cc(Br)cc(CC=C(C)C)c1O (stereo not drawn)
- inhibition: Active

SMILES: CC(C)=CC/C=C(\C)C(O)Cc1cc(C(=O)O)cc(CC=C(C)C)c1O (stereo not drawn)
- inhibition: Active

SMILES: COc1ccc2c(c1)c(CC(=O)O)c(C)n2C(=O)c1ccc(Cl)cc1
- inhibition: Active
